US12685755B2, “Methods and compositions for treating mucosal tissue disorders” (The University of North Carolina at Chapel Hill, priority 2012, dated 2026)

Legend:
[1] = test system: Pseudomonas aeruginosa strain PAO1; experiment: nitrate dependent growth of PAO1 under anaerobic atmosphere; type: cell-based; settings: for nitrate dependent growth: LB broth with nitrate, anaerobic atmosphere; for inhibition of growth: anaerobic
Protocol: FIG. 1. […] Pseudomonas aeruginosa strain PAO1 is capable of growing in the absence of oxygen using nitrate for respiration. […] The studies presented in FIG. 1 examine whether glutathione influences the growth of PAO1 either in the presence or absence of nitrate under either ambient (aerobic) or anaerobic atmospheres. […]
FIG. 4. […] To examine this possibility, S-nitrosoglutathione (Sigma) was tested for influence on growth of PAO1 in TSBN (1% KNO3) with and without 6.4 mM glutathione.
(§1) FIG. 7. […] The next series of experiments was designed to determine if there were any influences of ascorbate on glutathione potentiation of the growth inhibition of the RNI (FIGS. 7, 8 and 9).

CB2 receptor = CB2 receptor (Homo sapiens, UniProt P34972); settings: cited from earlier work
CB2 receptor, sequence (P34972 whole entry): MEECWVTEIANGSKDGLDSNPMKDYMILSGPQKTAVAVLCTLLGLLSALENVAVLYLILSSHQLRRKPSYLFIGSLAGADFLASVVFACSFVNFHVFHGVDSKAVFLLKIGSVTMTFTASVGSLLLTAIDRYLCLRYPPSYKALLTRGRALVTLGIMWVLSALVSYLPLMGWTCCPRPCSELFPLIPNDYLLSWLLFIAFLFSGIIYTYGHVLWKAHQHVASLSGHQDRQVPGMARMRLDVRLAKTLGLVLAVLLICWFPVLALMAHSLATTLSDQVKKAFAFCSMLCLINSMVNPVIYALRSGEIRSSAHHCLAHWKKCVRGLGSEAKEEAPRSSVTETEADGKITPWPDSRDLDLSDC

[2] = test system: Pseudomonas aeruginosa strain PAO1; experiment: aerobic growth of PAO1 in broth in ambient atmosphere; type: cell-based; settings: for effects on aerobic growth attained by 17 h, single components: each alone: KNO2 to 3.5 mM, glutathione to 5 mM, ascorbate to 2.1 mM
Source text: FIG. 1. […] Pseudomonas aeruginosa strain PAO1 is capable of growing in the absence of oxygen using nitrate for respiration. […] The studies presented in FIG. 1 examine whether glutathione influences the growth of PAO1 either in the presence or absence of nitrate under either ambient (aerobic) or anaerobic atmospheres.
(§2) FIG. 2. […] To test this possibility, reduced glutathione was titrated vs. increasing concentrations of KNO2 in either trypticase soy broth (TSB) in ambient atmosphere or in trypticase soy broth with nitrate (TSBN) (1% KNO3) under anaerobic atmosphere.
(§3) FIG. 3. […] These studies examined the question of the importance of the redox state of glutathione to its contributions to the inhibition by RNI and to the blocking of the glucose oxidase antimicrobial effects. Glutathione in either its reduced (GSH) or oxidized (GSSG) form was titrated in the presence or absence of 14 mM nitrite in TSB and PAO1 was grown in ambient atmosphere.
FIG. 6. […] If NO reacts with glutathione to generate nitrosoglutathione then gassing with NO in the presence of glutathione may be expected to yield greater activity than gassing first and then adding glutathione. To test this effect, LB broth was either pre-gassed with NO followed by titration of GSH or the LB broth aliquots containing various concentrations of GSH were gassed. Titration of NO was accomplished by varying the gassing times of the LB broth.
as §1
FIG. 8. […] Ascorbate was titrated over a checkerboard titration of glutathione and KNO2 in LB broth.
FIG. 9. […] In these experiments, varying concentrations of NO were achieved again by varying the gassing time (10, 15, 30 or 45 min) with 2.3% NO in N2 either in the presence (NO-GSH) or absence (NO-LB) of varying concentrations of glutathione. Glutathione was added to NO-LB in varying concentrations (NO-LB+GSH).

[3] = test system: P. aeruginosa clinical isolate (C3873M)
Protocol: (§4) FIGS. 10A-B. Influences of bicarbonate on alginate production by different strains of P. aeruginosa under a 5% CO2 atmosphere. Alginate production of selected strains of P. aeruginosa surface grown in a CO2 incubator was quantitatively determined by a colorimetric assay. […] These three strains were then tested for their ability to make alginate under an atmosphere of 5% CO2 with increasing concentrations of NaHCO3(FIG. 10B).

[4] = test system: Pa Mucoid laboratory derived from PAO1; settings: 5% CO2; increasing concentrations of NaHCO3
Protocol: as §4

PAO1 = settings: 5% CO2; increasing concentrations of NaHCO3
Protocol: as §4

[5] = test system: Pseudomonas aeruginosa strain PAO1; experiment: glucose oxidase / H2O2 mediated growth inhibition of PAO1; type: cell-based
Source text: as §2, §3

[6] = absence of NO, glutathione and ascorbate concentrations and combinations of the study

N[C@@H](CCC(=O)N[C@@H](CSN=O)C(=O)NCC(=O)O)C(=O)O [GSNO, S-nitrosoglutathione, reference compound]
inhibition of growth, bacterial density (A=650 nm) at 18 h ([1]; GSNO titrated, TSBN (1% KNO3), without glutathione): concentration dependent inhibition

C=C1CC[C@@H]2[C@@H](C1)c1c(OC)cc(C(C)(C)CCCCCC)cc1OC2(C)C [L-759,656]
CB1/CB2 binding ratio (CB2 receptor): > 1000

[N]=O [NO, nitric oxide, reference compound]
inhibition of aerobic growth by NO ([2]; LB broth gassed with NO, absence of glutathione): no discernible inhibition

O=C1O[C@H]([C@@H](O)CO)C(O)=C1O [ascorbate, ascorbic acid]
inhibition of growth in ambient atmosphere ([2]; 0.2 mM ascorbate with 7.5 mM glutathione, presence of nitrate): profound inhibition of growth | inhibition of aerobic growth ([2]; 2.1 mM ascorbate with 7.5 mM glutathione, absence of nitrate): total inhibition | inhibitory effects on aerobic growth [2, 6]: no inhibitory effects | effect on inhibition by KNO2 with glutathione ([2]; ascorbate added to KNO2 and glutathione, LB broth): enhanced | effect on aerobic growth attained by 17 h ([2]; ascorbate added to either glutathione or KNO2, LB broth): no discernible effect | enhancement of inhibition of aerobic growth ([2]; ascorbate titrated, 15 min delivery of NO, 2.5 mM GSH): concentration dependent ascorbate enhancement of inhibition | effects on aerobic growth attained by 17 h, single components ([2]; LB broth): neither KNO2 to 3.5 mM, glutathione to 5 mM nor ascorbate to 2.1 mM had discernible effects | effect on glutathione reduction of aerobic growth ([2]; increasing concentrations of ascorbic acid added to glutathione, LB broth): further enhanced | decrease in nitrate-dependent growth ([1]; increasing ascorbate in the presence of 2.5 mM glutathione): more pronounced | nitrate-dependent growth ([1]; increasing concentrations of ascorbate, absence of glutathione): dose dependent decrease in nitrate-dependent growth

O=C(O)O [bicarbonate, NaHCO3]
alginate production ([3]; 5% CO2, increasing concentrations of NaHCO3): inhibited | alginate production associated with the mucoidy phenotype of P. aeruginosa ([3]; preliminary studies): inhibits the alginate production | alginate production [4]: significantly enhanced | alginate production (PAO1): failed to make alginate

N[C@@H](CCC(=O)N[C@@H](CS)C(=O)NCC(=O)O)C(=O)O [glutathione, N—(N-L-γ-glutamyl-L-cysteinyl)glycine]
inhibition of aerobic growth, glutathione with NO ([2]; 2.5 mM glutathione, NO titrated by gassing time, LB broth): dose dependent NO inhibition of growth | inhibition of aerobic growth ([2]; 5 mM glutathione and ascorbate, presence versus absence of nitrate): greater inhibition of aerobic growth | inhibition of aerobic growth, glutathione with NO ([2]; 5 mM glutathione, lowest concentration of NO (10 minutes gassing time), LB broth): total inhibition | inhibition of aerobic growth, glutathione with NO ([2]; 5 mM glutathione, lowest concentration of NO, regardless of order of addition): total inhibition of growth | inhibition of growth, glutathione with nitrite ([2]; 6.4 mM GSH and 14 mM KNO2, TSB, ambient atmosphere): significant inhibition | growth yield at 14 h ([2]; 7.5 mM glutathione, LB broth with or without 1% nitrate, aerobic): reduced growth yield | inhibition of growth, glutathione with nitrite ([2]; 12.8 mM GSH and 7 mM KNO2, TSB, ambient atmosphere): significant inhibition | inhibition of PAO1 growth in the presence of nitrite ([2]; 14 mM nitrite, TSB, ambient atmosphere, molar equivalency): inhibition of PAO1 growth | enhancement of NO gas inhibition of aerobic growth ([2]; 0.5 relative concentration of NO, TSB): dose dependent enhancement of inhibition | inhibitory effects on aerobic growth [2, 6]: no inhibitory effects | effects on aerobic growth attained by 17 h, single components ([2]; LB broth): neither KNO2 to 3.5 mM, glutathione to 5 mM nor ascorbate to 2.1 mM had discernible effects | aerobic growth attained ([2]; glutathione titrated, LB broth): dose dependent reduction in the aerobic growth | lowest glutathione concentration at which synergistic inhibition was evident ([2]; in the presence of 1.75 mM KNO2, ascorbate titrated, LB broth): 2.5 mM | enhancement of NO gas inhibition of aerobic growth ([2]; lower NO concentrations, TSB): not at lower NO concentrations | aerobic growth of P. aeruginosa ([2]; nitrite and nitric oxide in the presence of GSH): inhibit the aerobic growth of P. aeruginosa | growth yield ([2]; reduced glutathione titrated, TSB, absence of nitrite): slight, but significant, concentration-dependent increase in growth yield | growth inhibition of PAO1 by exogenous H2O2 ([5]; 14 mM GSH): blocked | protection from inhibition with the glucose oxidase system ([5]; TSB, ambient atmosphere): protected PAO1 from inhibition | protection from the growth inhibiting effects of glucose oxidase ([5]; increasing concentration of GSH): protected PAO1 | growth in an anaerobic atmosphere with nitrate ([1]; 2.5 mM and lower concentrations of glutathione, absence of ascorbate): permitted growth | nitrate dependent growth ([1]; 2.5 mM glutathione or less): no discernible effects | nitrate dependent growth ([1]; 5 mM glutathione): total inhibition | effect on GSNO inhibition of growth, bacterial density (A=650 nm) at 18 h ([1]; 6.4 mM glutathione with GSNO, TSBN (1% KNO3)): significantly enhanced | nitrate dependent growth ([1]; 7.5 mM glutathione): total inhibition | inhibition of growth ([1]; increasing GSH with nitrite concentrations not totally inhibitory by themselves, TSBN): further inhibition | use of nitrate, nitrite or nitric oxide for growth under anaerobic conditions ([1]; preliminary data, P. aeruginosa): limit the ability of P. aeruginosa to utilize nitrate, nitrite, or nitric oxide to grow under anaerobic conditions | anti-pseudomonal activities of GSNO and other nitric oxide donors ([1]; presence of exogenous glutathione): potentiated

O=N[O-].[K+] [nitrite, KNO2, reference compound]
inhibitory effects on aerobic growth ([2]; KNO2 in the presence of glutathione, LB broth): concentration dependent inhibitory effects | effects on aerobic growth attained by 17 h, single components ([2]; LB broth): neither KNO2 to 3.5 mM, glutathione to 5 mM nor ascorbate to 2.1 mM had discernible effects | lowest KNO2 concentration at which synergistic inhibition was evident ([2]; in the presence of 5 mM glutathione, ascorbate titrated, LB broth): 0.875 mM | inhibition of aerobic growth ([2]; nitrite to 14 mM, absence of glutathione, TSB): no discernible inhibition | inhibition of growth ([1]; KNO2 added, TSBN (1% KNO3), absence of glutathione): significant inhibition
